Common to all, as to format: cell-based
In one assay the test system is H1975 cell line. The assay is described as follows: Cytotoxicity / growth inhibition, 96-well CellTiter-Glo assay, H1975. As to conditions: for GI50: Homo sapiens, NCI-H1975, 72 h, H1975, lung cancer cell line, 3-day assay, read-out: GI50, concentration that inhibits 50% cell growth. The protocol: (§1) Cytotoxicity. The growth-inhibition activities of both purified UMAF (also referred to as UMAF in this example) optical enantiomers were studied in a standard 96-well cell-based assay using representative cell lines from prostate, ovarian, and lung cancers. The concentrations that cause a 50% inhibition of cell growth (GI50) were determined using a luminescent vital assay reagent (CellTiter-Glo®, Promega Corporation). The growth inhibition curves as a function of UMAF concentration are shown from a representative assay. […] The GI50 concentrations of the two forms for the six cell lines are shown below.
Background: In ATP-based viability assays light output follows the ATP content of the culture.

For the next assay, the system named is SK-OV3 cell line. The assay is described as follows: Cytotoxicity / growth inhibition, 96-well CellTiter-Glo assay, SK-OV3. As to conditions: for GI50: Homo sapiens, SK-OV-3, 72 h, SK-OV3, ovarian cancer cell line, 3-day assay, read-out: GI50, concentration that inhibits 50% cell growth. The protocol:
as §1

The subject of another assay is DU145 cell line. The assay is described as follows: Cytotoxicity / growth inhibition, 96-well CellTiter-Glo assay, DU145. The settings on record: for GI50: Homo sapiens, DU-145, 72 h, DU145, prostate cancer cell line, 3-day assay, read-out: GI50, concentration that inhibits 50% cell growth. The protocol:
as §1

The next assay has as its system PC3 cell line. The assay is described as follows: Cytotoxicity / growth inhibition, 96-well CellTiter-Glo assay, PC3. The settings on record: Homo sapiens, PC-3, 72 h; PC3, prostate cancer cell line, 3-day assay; read-out: GI50, concentration that inhibits 50% cell growth. The protocol:
as §1

Another assay concerns HCC827 cell line. The assay is described as follows: Cytotoxicity / growth inhibition, 96-well CellTiter-Glo assay, HCC827. The settings on record: Homo sapiens, 72 h; HCC827, lung cancer cell line, 3-day assay; read-out: GI50, concentration that inhibits 50% cell growth. The protocol:
as §1

Another assay deals with OVCAR-3 cell line. Nature of the assay: Cytotoxicity / growth inhibition, 96-well CellTiter-Glo assay, OVCAR-3. As to conditions: for GI50: Homo sapiens, 72 h, OVCAR-3, ovarian cancer cell line, 3-day assay, read-out: GI50, concentration that inhibits 50% cell growth. The protocol:
as §1

Structures are written as SMILES.

Turning to `CC1=C(CN(O)C(N)=O)C2=C(C)C3(CC3)[C@](C)(O)C(=O)C2=C1` [(+)-UMAF, (+)-hydroxyureamethylacylfulvene], the “toxicity compared between the two enantiomers (growth inhibition curves)” value in the assay on H1975 cell line (H1975, FIG. 9) is reported as “more toxic”; in the assay with SK-OV3 cell line (SK-OV3, FIG. 7) it was “more toxic”; in the assay with DU145 cell line (DU145, FIG. 4) it was “more toxic”; in the assay with OVCAR-3 cell line (OVCAR3, FIG. 6), “more toxic”. For the same molecule, the GI50 was found to be 287 nM in the assay with H1975 cell line; 554 nM in the assay on SK-OV3 cell line; 34.8 nM with DU145 cell line; 1120 nM in the assay on PC3 cell line; 897 nM with HCC827 cell line; 254 nM with OVCAR-3 cell line.
Turning to `CC1=C(CN(O)C(N)=O)C2=C(C)C3(CC3)[C@@](C)(O)C(=O)C2=C1` [(−)-UMAF, (−)-hydroxyureamethylacylfulvene], the GI50 with H1975 cell line stood at 6320 nM; in the assay with SK-OV3 cell line, 2400 nM; in the assay on DU145 cell line, 506 nM; with PC3 cell line, 824 nM; in the assay on HCC827 cell line it was 1640 nM; in the assay on OVCAR-3 cell line it was 1820 nM.
